Measured values published in US20070099887A1, “Photodynamic therapy for the treatment of prostatic conditions” (priority 2003, published 2007).

Tested on: prostate
Experiment: Photodynamic therapy of the canine prostate after intraprostatic injection of QLT0074 and transurethral 690 nm light
Assay type: in vivo, dogs
Protocol: Eight mature, intact, mixed-breed dogs were premedicated with butorphanol (0.4 mg per kilogram of body weight), acepromazine (0.1 mg/kg), and atropine (0.4 mg/kg), all given by intramuscular injection. Anesthesia was induced with intravenous thiopental sodium (8 mg per 0.4536 kilograms of body weight) and maintained with inhaled isoflurane and oxygen (dosage as required for anesthetic effect). QLT0074 for injection (A-EA6 in U.S. Pat. No. 5,929,105) was reconstituted with Water for Injection to give a stock concentration of 2.0 mg/ml and then diluted with 5% Dextrose in water to a concentration 0.2 mg/ml. Injections of the drug were then delivered to the prostate using a commercially available transurethral injection device (InjecTx™, San Jose, Calif., USA). Two injections of 0.5 ml were given to each left lobe of the prostate and 2 injections of 1.0 ml were given to each right lobe of the prostate. The activation-energy delivery device used comprised: • a cylindrical fibre optic with a 200 μm diameter core, a 25 mm long diffuser, and a power rating of 175 mW/cm (maximum power load, 437.5 mW), • a reflective-cap fibre-centering balloon catheter with a 20 mm treatment window supplied with a guidewire for positioning the device in the urethra, and • a 3 W 690 nm red-light diode laser (AOC, South Plainfield, N.J., USA). The treatment assembly was positioned in the urethra using ultrasonic guidance. Ultrasound was also used to position the needles for four […] intraprostatic injections (two per lobe separated by longitudinally by 1 cm). Each injection was at a depth of between 8 and 12 mm into the prostate. The activation energy was delivered 15 minutes after the last injection. A dose of either 25 J/cm^2, 50 J/cm^2, or 100 J/cm^2 was delivered. […] After seven days the dogs were euthanased and the prostates were harvested.

[1] = prostates harvested after seven days, QLT0074 0.2 mg/ml intraprostatic, injection depth 8-12 mm, 25, 50 or 100 J/cm^2

## C=Cc1c(C)c2cc3nc(cc4[nH]c(cc5nc(cc1[nH]2)C(C)=C5CCC(=O)OCCO)c(CCC(=O)OCCO)c4C)[C@@]1(C)C3=CC=C(C(=O)OC)[C@H]1C(=O)OC [QLT0074, Lemuteporfin]
Dogs euthanased after seven days, QLT0074 0.2 mg/ml intraprostatic, 25, 50 or 100 J/cm^2
  Bowel, bladder, and prostate sizes: within normal ranges
Mature intact mixed-breed dogs, QLT0074 0.2 mg/ml, 2 x 0.5 ml left lobe and 2 x 1.0 ml right lobe, 690 nm light 25, 50 or 100 J/cm^2 15 minutes after last injection, observed for one week
  Clinical appearance of the dogs during observation: clinically normal
[1]
  PDT-associated damage in the urethra: no significant PDT-associated damage
  PDT-associated tissue damage in the target tissue (prostates): evidence of PDT-associated tissue damage in the target tissue
